Marks after values point to notes of the source that are not given here.
Columns and labels:
Assay type in all cases: in vivo, human
solid tumours = assay: Clinical activity in other solid tumours (RECIST v1.1)
Excerpt: Evaluation of the anticancer activity of RO6870810 was a secondary objective, as measured by time to first and best response, overall response rate, progression-free survival (PFS), duration of response and overall survival. […] Responders were defined as patients who achieved a confirmed CR or partial response (PR). PFS was defined as the time from the date of first study drug administration to the first date of objectively determined progressive disease (PD) or death from any cause. PFS was censored at the date of the most recent objective progression-free observation for patients who were still alive at the time of analysis and without evidence of tumour progression. For patients who received subsequent anticancer therapy prior to objective disease progression or death, PFS was censored at the date of the last objective progression-free observation prior to the date of subsequent therapy.

[1] = tested on: CD11b expression in monocytes; assay: Pharmacodynamics: CD11b expression by flow cytometry
Method: For pharmacodynamic assessments, venous blood samples were collected and CD11b expression in monocytes was assessed as a surrogate marker of target engagement using flow cytometry before and after the first administration of RO6870810. Samples were obtained on cycle 1, day 1 (pre-dose and 2, 4 and 8 h post dose) and on cycle 1, day 15 (pre-dose and 2- and 4-h post dose). […] Formal hypothesis testing was not performed for this Phase 1 study. The sample size was based on a standard 3 + 3 dose-escalation design and was considered sufficient to evaluate the safety and clinical activity of RO6870810. AEs were coded using the current Medical Dictionary for Regulatory Activities, and safety and clinical efficacy were summarised using descriptive statistics. The 95% CI for the objective response rate was calculated using Wilson’s score method with continuity correction, and PFS was analysed using the Kaplan–Meier method. For the PK analyses, key exposure parameters such as maximum plasma concentration (Cmax) and area under the curve were summarised with descriptive statistics, and dose-exposure relationships were plotted graphically. Percentage changes in CD11b from baseline by flow cytometry were summarised with descriptive statistics and plotted over time. The relationship between percentage change from baseline in CD11b (average of three measurements taken pre-dose, at 2 h and at 4 h) on day 15 and the RO6870810 dose was plotted. To investigate the relationship between individual percentage changes in CD11b from baseline and RO6870810 concentration on day 15, the nonparametric regression LOESS curve fitting (locally weighted scatterplot smoothing) method was applied.

[2] = RO6870810 plasma pharmacokinetics
Method: The determination of RO6870810 PK was another secondary objective. RO6870810 plasma levels were measured during treatment and during the follow-up period. Venous blood samples were collected on multiple days during cycle 1 and on day 1 of subsequent cycles. Complete PK assessment parameters are included in the Supplementary Methods. Patients with sufficient data to determine PK parameters were included in the PK analysis population.
Formal hypothesis testing was not performed for this Phase 1 study. The sample size was based on a standard 3 + 3 dose-escalation design and was considered sufficient to evaluate the safety and clinical activity of RO6870810. AEs were coded using the current Medical Dictionary for Regulatory Activities, and safety and clinical efficacy were summarised using descriptive statistics. The 95% CI for the objective response rate was calculated using Wilson’s score method with continuity correction, and PFS was analysed using the Kaplan–Meier method. For the PK analyses, key exposure parameters such as maximum plasma concentration (Cmax) and area under the curve were summarised with descriptive statistics, and dose-exposure relationships were plotted graphically. Percentage changes in CD11b from baseline by flow cytometry were summarised with descriptive statistics and plotted over time. The relationship between percentage change from baseline in CD11b (average of three measurements taken pre-dose, at 2 h and at 4 h) on day 15 and the RO6870810 dose was plotted. To investigate the relationship between individual percentage changes in CD11b from baseline and RO6870810 concentration on day 15, the nonparametric regression LOESS curve fitting (locally weighted scatterplot smoothing) method was applied.
RO6870810 plasma concentrations were assessed in blood samples collected as follows:
Cycle 1, day 1: Blood samples were collected before and immediately after injection and 0.25, 0.5, 1, 2, 4, 6, 8, and 10 hours after the injection was completed
Cycle 1, day 2: Blood samples were collected 24 hours (pre-dose) and 28 hours (4 hours after receiving a second dose) after the injection on day 1 was completed
Cycle 1, day 8: A blood sample was drawn at the visit as a random value
Cycle 1, day 15: Blood samples were drawn before and immediately after injection and 0.25, 0.5, 1, 2, and 4 hours after the injection was completed
Cycle 1, day 22: Blood samples were drawn at the visit as a random value (28-day treatment cycle only)
Cycle X, day 1: On day 1 of all cycles after cycle 1, blood samples were drawn as a random value during the study visit
A blood sample was drawn as a random value during the end-of-treatment visit on early termination

[3] = Solid tumours, % of n = 42 with non-missing best response
[4] = solid tumours, of 42 patients with non-missing data

Cc1sc2c(c1C)C(c1ccc(Cl)cc1)=N[C@@H](CC(=O)NCCCN1CCN(C)CC1)c1nnc(C)n1-2 [RO6870810]
Complete response (solid tumours; Solid tumours (n = 47)): 0 n (%) | Median time to first response (min-max) (solid tumours; Solid tumours (n = 47)): 56.0 days | Missing response (no postbaseline tumour assessment) (solid tumours; Solid tumours (n = 47)): 5 n (%) | Unknown response (solid tumours; Solid tumours (n = 47)): 1 (2.4)^b n (%) | Partial response (solid tumours; [3]): 1 (2.4)^c n (%) | Progressive disease (solid tumours; [3]): 15 (35.7)^c n (%) | Stable disease (solid tumours; [3]): 25 (59.5)^c n (%) | Patients with PD as best response (solid tumours; adenocarcinoma pancreas): 1 n | Patients with PD as best response (solid tumours; breast cancer): 2 n | Patients with SD as best response (solid tumours; breast cancer): 2 n | Patients with PD as best response (solid tumours; colorectal cancer): 4 n | Patients with SD as best response (solid tumours; colorectal cancer): 5 n | Patients with an unknown response (solid tumours; colorectal cancer): a patient | Patients with PD as best response (solid tumours; endometrial cancer): 1 n | Patients with PD as best response (solid tumours; fallopian tube cancer): 1 n | Patients with PD as best response (solid tumours; gastrointestinal stromal tumour): 1 n | Patients with SD as best response (solid tumours; hepatic cancer): 1 n | Patients with PD as best response (solid tumours; non-small cell lung cancer): 1 n | Patients with SD as best response (solid tumours; non-small cell lung cancer): 1 n | Patients with SD as best response (solid tumours; oesophageal carcinoma): 1 n | Patients with PD as best response (solid tumours; ovarian cancer): 1 n | Patients with SD as best response (solid tumours; ovarian cancer): 2 n | Patients with PD as best response (solid tumours; pancreatic cancer): 1 n | Patients with SD as best response (solid tumours; pancreatic cancer): 1 n | Tumour reduction at nadir (solid tumours; patient with acinic cell carcinoma of the parotid gland): 46.8% | Tumour reduction at PR (solid tumours; patient with acinic cell carcinoma of the parotid gland, after two cycles, at 57 days): > 40% | Patients with PD as best response (solid tumours; poorly differentiated carcinoma of unknown origin): 1 n | Patients with SD as best response (solid tumours; prostate cancer): 7 n | Patients with PR as best response (solid tumours; salivary gland cancer): a patient | Patients with SD as best response (solid tumours; salivary gland cancer): 4 n | Median PFS (solid tumours; solid tumours, 47 patients): 90 days | PFS range (solid tumours; solid tumours, 47 patients): 9 to 315 days | Objective response rate (solid tumours; solid tumours, n = 1 of 47, 95% CI, 0%–13%): 2% | PD as best response (solid tumours; [4]): 36% | PR as best response (solid tumours; [4]): 2% | Patients with PD as best response (solid tumours; squamous cell carcinoma): 1 n | Patients with SD as best response (solid tumours; uterine cancer): 1 n | Change in CD11b during the dosing period ([1]; across dose levels, with the exception of the 0.03-mg/kg dose): sustained decreases in CD11b | Largest decreases in CD11b ([1]; at ≥0.2 mg/kg, cycle 1, day 15): ≥ 50% | Doses at which mean decreases in CD11b occurred ([1]; cycle 1, day 15): > 0.06 mg/kg | RO6870810 concentration reaching a 50% reduction in CD11b ([1]; cycle 1, day 15, LOESS curve): > 150 ng/mL | Dose-exposure relationship (Cmax and area under the curve over 24 h) ([2]; 0.03-0.65 mg/kg, cycle 1, day 1): dose-proportional | Absorption ([2]; SC, across dose levels): rapid absorption | Time to Cmax ([2]; SC, days 1 and 15 of cycle 1): ≤ 1 h | Time to Cmax, median ([2]; SC, days 1 and 15 of cycle 1): 0.5 h | half-life ([2]; human, plasma, sc): ≥ 10 h | Clearance ([2]; in vivo): bodyweight dependent | Interpatient variability of Cmax ([2]; in vivo): 38% | Interpatient variability of area under the curve over 24 h ([2]; in vivo): 38% | Metabolites in plasma ([2]; leftover plasma samples screened): no metabolites were found
